Like-named read-outs stand apart in the source and are kept apart here.
Assays:
Test in all cases: MTT cell proliferation assay
Assay type in all cases: cell-based
MS751 cells = details: Homo sapiens, MS751, MS751 cells, approximately 64-72 hours incubation
Outline: (§1)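 5,000-10,000 cells/well, overnight attach; 8 conc., 1 nM–30 μM; MTT ~4 h; formazan solubilized, OD 490 nm; % inhibition = (1−(ODo/OD))×100 vs neg. control; mostly duplicate, mean±SE.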

3T3 cells = details: Mus musculus, NIH3T3, approximately 64-72 hours incubation
Outline: as §1

Z138 cells = details: Homo sapiens, Z-138, Z138 cells, approximately 64-72 hours incubation
Outline: as §1

[1] = read-out: MTT Assay IC50 MS-751
[2] = read-out: MTT Assay IC50, MS-751
[3] = read-out: MTT Assay IC50, Z-138

SMILES | IC50 (MS751 cells; [1]) [µM] | IC50 (3T3 cells; read-out: MTT Assay IC50 3T3) [µM] | IC50 (Z138 cells; read-out: MTT Assay IC50 Z-138) [µM] | IC50 (MS751 cells; [2]) [µM] | IC50 (3T3 cells; read-out: MTT Assay IC50, 3T3) [µM] | IC50 (Z138 cells; [3]) [µM]
Nc1ccc(/C=C/C(=O)NCc2cc3cc(-c4ccc(C(=O)N5CC6CC5CO6)cn4)cc(C(F)(F)F)c3o2)cn1 (stereo not drawn) [Compound 633, (E)-N-((5-(5-(2-oxa-5-azabicyclo[2.2.1]heptane-5-carbonyl)pyridin-2-yl)-7-(trifluoromethyl)benzofuran-2-yl)methyl)-3-(6-aminopyridin-3-yl)acrylamide] | 0.1 to 5 | > 10 | 0.1 to 5 |  |  | 
Cc1noc(C)c1/C=C/C(=O)NCc1cc2cc(-c3ccc(C(=O)N4CCOCC4)cc3)cc(Cl)c2o1 [Compound 541, (E)-N-((7-Chloro-5-(4-(morpholine-4-carbonyl)phenyl)benzofuran-2-yl)methyl)-3-(3,5-dimethylisoxazol-4-yl)acrylamide] | 0.1 to 5 | > 10 | 0.1 to 5 |  |  | 
Nc1ccc(/C=C/C(=O)NCc2cc3cc(-c4ccc(C(=O)N5CCC(F)(F)CC5)cn4)cc(-c4ccc(F)cc4F)c3o2)cn1 [Compound 710, (E)-3-(6-aminopyridin-3-yl)-N-((7-(2,4-difluorophenyl)-5-(5-(4,4-difluoropiperidine-1-carbonyl)pyridin-2-yl)benzofuran-2-yl)methyl)acrylamide] |  |  |  | < 0.1 | 0.1 to 5 | < 0.1
Nc1ccc(/C=C/C(=O)NCc2cc3cc(-c4ccc(C(=O)N5CCC(Cl)CC5)cc4)cc(C(F)(F)F)c3o2)cn1 [Compound 607, (E)-3-(6-aminopyridin-3-yl)-N-((5-(4-(4-chloropiperidine-1-carbonyl)phenyl)-7-(trifluoromethyl)benzofuran-2-yl)methyl)acrylamide] | 0.1 to 5 | > 10 | 0.1 to 5 |  |  | 
CC(=O)c1ccc(-c2ccc3oc(CNC(=O)/C=C/c4ccc(N)nc4)cc3c2)s1 [Compound 503, (E)-N-((5-(5-acetylthiophen-2-yl)benzofuran-2-yl)methyl)-3-(6-aminopyridin-3-yl)acrylamide] | 0.1 to 5 | > 10 | > 10 |  |  | 
Nc1ccc(/C=C/C(=O)NCc2cc3cc(-c4ccc(C(=O)N5CCC(F)(F)CC5)cc4F)cc(-c4cccnc4)c3o2)cn1 [Compound 748, (E)-3-(6-aminopyridin-3-yl)-N-((5-(4-(4,4-difluoropiperidine-1-carbonyl)-2-fluorophenyl)-7-(pyridin-3-yl)benzofuran-2-yl)methyl)acrylamide] |  |  |  | < 0.1 | 0.1 to 5 | < 0.1
Nc1ccc(/C=C/C(=O)NCc2cc3cc(-c4ccc(C(=O)N5CCCOCC5)cc4)cc(C(F)(F)F)c3o2)cn1 [Compound 574, (E)-N-((5-(4-(1,4-oxazepane-4-carbonyl)phenyl)-7-(trifluoromethyl)benzofuran-2-yl)methyl)-3-(6-aminopyridin-3-yl)acrylamide] | 0.1 to 5 | > 10 | 0.1 to 5 |  |  | 
CC1(C)CN(C(=O)c2ccc(-c3cc(Cl)c4oc(CNC(=O)/C=C/c5ccc(N)nc5)cc4c3)cc2)C1 [Compound 529, (E)-3-(6-aminopyridin-3-yl)-N-((7-chloro-5-(4-(3,3-dimethylazetidine-1-carbonyl)phenyl)benzofuran-2-yl)methyl)acrylamide] | 5 to 10 | > 10 | 0.1 to 5 |  |  | 
Nc1ccc(/C=C/C(=O)NCCc2cc3cc(-c4ccc(C(=O)N5CCC(F)(F)CC5)cc4)cc(C(F)(F)F)c3o2)cn1 [Compound 691, (E)-3-(6-aminopyridin-3-yl)-N-(2-(5-(4-(4,4-difluoropiperidine-1-carbonyl)phenyl)-7-(trifluoromethyl)benzofuran-2-yl)ethyl)acrylamide] |  |  |  | 0.1 to 5 | 0.1 to 5 | < 0.1
CN1CCN(C(=O)c2cnc(-c3cc(C(F)(F)F)c4oc(CNC(=O)/C=C/c5ccc(N)nc5)cc4c3)nc2)CC1 [Compound 594, (E)-3-(6-aminopyridin-3-yl)-N-((5-(5-(4-methylpiperazine-1-carbonyl)pyrimidin-2-yl)-7-(trifluoromethyl)benzofuran-2-yl)methyl)acrylamide] | 0.1 to 5 | > 10 | 0.1 to 5 |  |  | 
O=C(/C=C/c1cccnc1)NCc1cc2cc(-c3ccc(C(=O)N4CCC(F)(F)CC4)cn3)cc(-c3ccncc3)c2o1 [Compound 674] |  |  |  | < 0.1 | < 0.1 | < 0.1
O=C(/C=C/c1cccnc1)NCc1cc2cc(-c3ccc(C(=O)N4CCC(F)(F)CC4)cc3)cc(-c3cccnc3)c2o1 [Compound 725, (E)-N-((5-(4-(4,4-difluoropiperidine-1-carbonyl)phenyl)-7-(pyridin-3-yl)benzofuran-2-yl)methyl)-3-(pyridin-3-yl)acrylamide] |  |  |  | < 0.1 | < 0.1 | < 0.1
Nc1ccc(/C=C/C(=O)NCc2cc3cc(-c4ccc(C(=O)N5CCC(F)(F)C5)cc4)cc(C(F)(F)F)c3o2)cn1 [Compound 603, (E)-3-(6-aminopyridin-3-yl)-N-((5-(4-(3,3-difluoropyrrolidine-1-carbonyl)phenyl)-7-(trifluoromethyl)benzofuran-2-yl)methyl)acrylamide] | 0.1 to 5 | > 10 | 0.1 to 5 |  |  | 
COc1cc(-c2ccc(C(=O)N3CCNCC3)cc2)cc2cc(CNC(=O)/C=C/c3ccc(N)nc3)oc12 [Compound 637, (E)-3-(6-aminopyridin-3-yl)-N-((7-methoxy-5-(4-(piperazine-1-carbonyl)phenyl)benzofuran-2-yl)methyl)acrylamide] | 0.1 to 5 | > 10 | 0.1 to 5 |  |  | 
Nc1ccc(/C=C/C(=O)NCc2cc3cc(-c4ccc(C(=O)N5CCOCC5)cn4)cc(-c4ccc(F)cc4)c3o2)cn1 [Compound 568, (E)-3-(6-aminopyridin-3-yl)-N-((7-(4-fluorophenyl)-5-(5-(morpholine-4-carbonyl)pyridin-2-yl)benzofuran-2-yl)methyl)acrylamide] | < 0.1 | 0.1 to 5 | < 0.1 |  |  | 
O=C(/C=C/c1cccnc1)NCc1cc2cc(-c3ccc(C(=O)N4CCC(F)(F)CC4)cn3)cc(OC(F)(F)F)c2o1 [Compound 752, (E)-N-((5-(5-(4,4-difluoropiperidine-1-carbonyl)pyridin-2-yl)-7-(trifluoromethoxy)benzofuran-2-yl)methyl)-3-(pyridin-3-yl)acrylamide] |  |  |  | < 0.1 | < 0.1 | < 0.1
Nc1ccc(/C=C/C(=O)NCc2cc3cc(-c4ccc(S(=O)(=O)N5CC[C@@H](F)C5)cc4)cc(Cl)c3o2)cn1 [Compound 527, (R,E)-3-(6-aminopyridin-3-yl)-N-((7-chloro-5-(4-(3-fluoropyrrolidin-1-ylsulfonyl)phenyl)benzofuran-2-yl)methyl)acrylamide] | 0.1 to 5 | > 10 | 0.1 to 5 |  |  | 
Nc1ccc(/C=C/C(=O)NCc2cc3cc(-c4ccc(C(=O)N5CCC(F)(F)CC5)cn4)c(F)c(F)c3o2)cn1 [Compound 681, (E)-3-(6-aminopyridin-3-yl)-N-((5-(5-(4,4-difluoropiperidine-1-carbonyl)pyridin-2-yl)-6,7-difluorobenzofuran-2-yl)methyl)acrylamide] |  |  |  | > 10 | > 10 | 5 to 10
Nc1ccc(/C=C/C(=O)NCc2cc3cc(-c4ccc(C(=O)N5CCC(F)(F)CC5)cc4F)cc(-c4cccc(Cl)c4)c3o2)cn1 [Compound 756, (E)-3-(6-aminopyridin-3-yl)-N-((7-(3-chlorophenyl)-5-(4-(4,4-difluoropiperidine-1-carbonyl)-2-fluorophenyl)benzofuran-2-yl)methyl)acrylamide] |  |  |  | < 0.1 | > 10 | < 0.1
Nc1ccc(/C=C/C(=O)NCc2cc3cc(-c4ccc(C(=S)N5CCC(F)(F)CC5)cn4)cc(-c4ccc(F)cc4F)c3o2)cn1 [Compound 708, (E)-3-(6-aminopyridin-3-yl)-N-((7-(2,4-difluorophenyl)-5-(5-(4,4-difluoropiperidine-1-carbonothioyl)pyridin-2-yl)benzofuran-2-yl)methyl)acrylamide] |  |  |  | < 0.1 | 0.1 to 5 | < 0.1
Nc1ccc(/C=C/C(=O)NCc2cc3cc(-c4ccc(C(=O)N5CC6CC6C5)cn4)cc(C(F)(F)F)c3o2)cn1 (stereo not drawn) [Compound 623, (E)-N-((5-(5-(3-azabicyclo[3.1.0]hexane-3-carbonyl)pyridin-2-yl)-7-(trifluoromethyl)benzofuran-2-yl)methyl)-3-(6-aminopyridin-3-yl)acrylamide] | 0.1 to 5 | > 10 | 0.1 to 5 |  |  | 
CN1CCN(C(=O)c2ccc(-c3cc(C(F)(F)F)c4oc(CNC(=O)/C=C/c5ccc(N)nc5)cc4c3)nc2)CC1 [Compound 565, (E)-3-(6-aminopyridin-3-yl)-N-((5-(5-(4-methylpiperazine-1-carbonyl)pyridin-2-yl)-7-(trifluoromethyl)benzofuran-2-yl)methyl)acrylamide] | < 0.1 | 0.1 to 5 | < 0.1 |  |  | 
Cc1c(CNC(=O)/C=C/c2ccc(N)nc2)oc2c(C(F)(F)F)cc(-c3ccc(C(=O)N4CCC(F)(F)CC4)cn3)cc12 [Compound 677, (E)-3-(6-aminopyridin-3-yl)-N-((5-(5-(4,4-difluoropiperidine-1-carbonyl)pyridin-2-yl)-3-methyl-7-(trifluoromethyl)benzofuran-2-yl)methyl)acrylamide] |  |  |  | > 10 | > 10 | > 10

Reference: patent US12331040B2 (Karyopharm Therapeutics Inc., priority 2013, dated 2025)
